Data taken from patent US4361570A (Istituto Luso Farmaco D'Italia S.p.A., priority 1980, dated 1982).
Read-outs that look alike come from different tables or passages of the source.

Tests used:
[1] = system: lacticacidaemia; details: for lactate level: control animals 5.1±0.59 mM/l
Protocol: The resulting lactate levels are 2.9±0.8 mM/l with modality "A" and 1.37±0.01 mM/l with modality "B", respectively.
The control animals show a lacticacidaemia level of 5.1±0.59 mM/l.

[2] = system: lacticacidaemia; details: for lacticacidaemia, basal / lacticacidaemia, after 15 minutes / lacticacidaemia, after 10 minutes / lacticacidaemia, immediately after stress: 2300 mg in 250 ml venous infusion
Protocol: All the patients are being treated with insulin and are in a metabolic compensation.
The trials are performed on double-blind conditions. Each patient is subjected to an isometric stress test at 50% of its maximum ability for one minute.
The samples for measuring the lacticacidaemia are taken from the same arm performing the muscular stress.

[3] = Rat
[4] = Mouse
[5] = Rabbit, i.v.
[6] = 400 mg/kg/os, rats, six months
[7] = rats
[8] = 920 mg/kg/i.m., dog
[9] = pregnant rabbit
[10] = pregnant rat
[11] = system: blood lactic acid
[12] = system: homogenized liver and brain; details: in vitro, Warburg apparatus, French Pat. No. 6453 M; cited from earlier work
[13] = system: hyperlacticacidaemia; assay: Lacticacidaemia in cyrrhotic patients having hyperlacticacidaemia (double blind); details: venous 2300 mg in 250 ml, 25 cyrrhotic patients
[14] = system: maximal aerobic capacity; blood lactate; assay: Maximal aerobic capacity and blood lactate at work loads in trained non-athletic individuals
[15] = system: lacticacidaemia; details: known effect of metformin; cited from earlier work

Cc1ncc(CO)c(CO)c1O.O=C(O)CCC(=O)C(=O)O [PAK]
decrease of lacticacidaemia ([1]; modality "A" and modality "B", with metformin): notable decrease of lacticacidaemia
lactate level ([1]; modality "A": PAK 25 mg/h venous infusion contemporaneously with metformin (300 mg/i.d.)): 2.9±0.8 mM/l
lactate level ([1]; modality "B": PAK 25 mg/h venous infusion three hours after metformin (300 mg/i.d.)): 1.37±0.01 mM/l
duration of effect ([2]; analysis of the variance): protracted in time
reduction of lacticacidaemia after stress ([2]; analysis of the variance): faster with PAK
increase of lacticacidaemia by stress with respect to physiological solution ([2]; analysis of the variance, p<0.01): lower with respect to physiological solution
lacticacidaemia, basal ([2]; sequence (a) physiological solution/PAK, physiological solution 0.88 ± 0.19): 0.94 ± 0.20
lacticacidaemia, after 15 minutes ([2]; sequence (a) physiological solution/PAK, physiological solution 1.54 ± 0.30): 1.18 ± 0.30
lacticacidaemia, after 10 minutes ([2]; sequence (a) physiological solution/PAK, physiological solution 1.73 ± 0.35): 1.60 ± 0.30
lacticacidaemia, immediately after stress ([2]; sequence (a) physiological solution/PAK, physiological solution 3.12 ± 0.46): 2.62 ± 0.38
lacticacidaemia, basal ([2]; sequence (b) PAK/physiological solution, physiological solution 0.93 ± 0.19): 0.88 ± 0.16
lacticacidaemia, after 15 minutes ([2]; sequence (b) PAK/physiological solution, physiological solution 1.25 ± 0.40): 1.11 ± 0.29
lacticacidaemia, after 10 minutes ([2]; sequence (b) PAK/physiological solution, physiological solution 1.43 ± 0.44): 1.30 ± 0.33
lacticacidaemia, immediately after stress ([2]; sequence (b) PAK/physiological solution, physiological solution 2.08 ± 0.49): 2.03 ± 0.47
LD50 ([3]; i.m.): 2329 mg/kg
LD50 ([3]; i.p.): 1704 mg/kg
LD50 ([3]; i.v.): 588 mg/kg
LD50 ([3]; os): 4800 mg/kg
LD50 ([4]; i.m.): 2472 mg/kg
LD50 ([4]; i.p.): 1590 mg/kg
LD50 ([4]; i.v.): 496 mg/kg
LD50 ([4]; os): 5600 mg/kg
LD50 [5]: 1050 mg/kg
Chronic toxicity [6]: does not cause any collateral nor toxic effect in the various organs
Systemic tolerability ([7]; 46 mg/kg/i.v.): well tolerated
Systemic tolerability ([7]; 460 mg/kg/i.m.): well tolerated
Systemic tolerability [8]: well tolerated
Activity on gestation ([9]; 46 mg/kg/i.m.): does not cause any noxious effect in the pregnant female, on the gestation and on the embryo-fetal development
Activity on gestation ([9]; oral 1300 mg/kg): does not cause any noxious effect in the pregnant female, on the gestation and on the embryo-fetal development
Activity on gestation ([10]; 46 mg/kg/i.m.): does not cause any noxious effect in the pregnant female, on the gestation and on the embryo-fetal development
Activity on gestation ([10]; oral 1300 mg/kg): does not cause any noxious effect in the pregnant female, on the gestation and on the embryo-fetal development
decrease in the formation of blood lactic acid ([11]; 2 g/100 kg of weight/day for 15 days, 5 trotters, trot): significant decrease
basal lacticacidaemia after treatment ([11]; 2 g/100 kg/day for 15 days, before treatment 6.04 mg/100 ml): 3.30 mg/100 ml
lacticacidaemia immediately after the stress, after treatment ([11]; 2 g/100 kg/day for 15 days, before treatment 29.41 mg/100 ml): 15.94 mg/100 ml
oxygen consumption vs α-ketoglutaric acid or pyridoxine alone [12]: markedly higher
further increase of hyperlacticacidaemia [13]: prevented its further increase
reduction of hyperlacticacidaemia vs basal values and controls ([13]; p<0.01): statistically significant (p<0.01) reduction
effect on half time (t 1/2) of La disappearance from blood during recovery ([14]; 30 mg/kg): unaffected
increase of maximal aerobic capacity (VO2 max) ([14]; 30 mg/kg of body weight, p<0.005): 6%
kinetics of the VO2 on-and-off responses ([14]; 30 mg/kg, onset and offset of a rectangular work load): not affected
ΔLab, peak blood lactate concentration vs control group ([14]; 30 mg/kg, supermaximal running work load lasting 60 seconds, p<0.05): -1.1 mmol·1^-1
ΔLab, peak blood lactate concentration vs control group ([14]; 30 mg/kg, supermaximal running work load lasting 132±4 seconds, p<0.01): < 2.7 mmol·1^-1

CN(C)C(=N)N=C(N)N [metformin]
lacticacidosis in rat [15]: causes lacticacidosis
